Each block holds one molecule with its values, some of them ahead of it. Starred links: 1 amine or outer side, 2 acyl side, 3 side chain; linkers in the order of their positions; H or OH if unused. Positions of bridges follow the written chain, without caps; N, C: chain ends. Non-standard residues stand in square brackets, D forms with d. Residues, ends and D or L forms follow the SMILES beside them. Groups on a side chain read outwards from the residue. *: point of attachment. KCOpipzaa = N6-(4-(carboxymethyl)piperazine-1-carbonyl)-L-lysine, O=C(NCCCC[C@H](N[*:1])C(=O)[*:2])N1CCN(CC(=O)[*:3])CC1; Piperazinyl(4-CH2COOH) = O=C(O)CN1CCN(*)CC1; 1Nal = N[C@@H](Cc1cccc2ccccc12)C(=O)O; Gly(NCH2CH2Ph) = O=C(O)CNCCc1ccccc1; 4Pal = N[C@@H](Cc1ccncc1)C(=O)O; CO = O=C([*:1])[*:2]
How the values were obtained:
recombinant human TGF-β1 [1] = biological target: T1, recombinant human TGF-β1 (Homo sapiens, UniProt P01137); experiment: SPR intermolecular interaction test, TGF-β1 immobilized on CM3 sensor chip (Biacore T200); format: binding; conditions: Single Cycle Kinetics, human TGF-β1
T1 construct: purchased R&D systems
Description: In this Example, (1) the activity of binding to TGF-β for various peptides consisting of the amino acid sequences set forth in SEQ ID NOs: 2-33 synthesized in Examples 1 to 5 and 7 was evaluated. (2) The activity and selectivity of binding of the peptide consisting of the amino acid sequence set forth in SEQ ID NO: 13 synthesized in Example 2 against two isoforms of TGF-β (TGF-β1 and β2) were checked. For this purpose, the intermolecular interaction of each peptide against TGF-β was tested by surface plasmon resonance (SPR) in the method described below. Specific test methods are described below.
A CM3 sensor chip (Global Life Science Technologies Japan Co., Ltd.) was inserted into a BiacoreT200 (Global Life Science Technologies Japan Co., Ltd.). Three priming runs were performed using running buffer: HBS-EP+ (Global Life Science Technologies Japan Co., Ltd.). The system was then equilibrated at a flow rate of 30 μL/min.
Subsequently, 50 μL of 60 mM EDC solution (Global Life Science Technologies Japan Co., Ltd.) and 50 μL of 650 mM NHS solution (Global Life Science Technologies Japan Co., Ltd.) were mixed. Next, the reaction was carried out at a flow rate of 10 μL/min for 420 seconds. Then, 150 μL of 0.2 μM TGF-β solution diluted in 10 mM acetic acid solution (pH 5.0) was prepared and reacted at a flow rate of 10 μL/min for 420 seconds to immobilize TGF-β on the CM3 sensor chip. TGF-β was human-derived TGF-β1 or β2 (recombinant human TGF-β1, 2) and was obtained from R&D systems. After immobilization, capping was performed by reacting with 1.0 M ethanolamine aqueous solution (Global Life Science Technologies Japan Co., Ltd.) at a flow rate of […] for 420 seconds.
A liquid prepared by dissolving each peptide at 10 mM in DMSO solution was diluted with running buffer to prepare a peptide-dissolved solution at a final concentration of 10 μM. Subsequently, 50 nM, 25 nM, 12.5 nM, 5 nM, and 2.5 nM peptide solutions were prepared. Using the above samples, the kinetics of each peptide against TGF-β was obtained by SPR measurement.
The kinetics evaluation model was Single Cycle Kinetics, and curve fitting was performed using Biacore T200 Evaluation Software Version 3.0 (Global Life Science Technologies Japan Co., Ltd.). The binding of various peptides to TGF-β was evaluated by performing least-squares curve fitting on the obtained sensorgram to calculate the KD value.

recombinant human TGF-β1 [2] = biological target: T1, recombinant human TGF-β1; experiment: SBE reporter assay in SBE reporter-HEK293 cells, TGF-β1 stimulation; format: cell-based; conditions: for inhibition at 75 pM: peptide 0.075 nM; for inhibition at 0.00075 µM: peptide 0.75 nM; for inhibition at 0.0075 µM: peptide 7.5 nM; for inhibition at 0.075 µM: peptide 75.0 nM
Method in brief: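 SBE luciferase reporter HEK293 cells in 0.5% FBS medium, preincubated 20 min with peptide, then stimulated 18 h with 0.13 nM recombinant human TGF-β1. Luminescence read; inhibition scaled with maximal TGF-β signal as 0% and unstimulated as 100%.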

recombinant human TGF-β2 = biological target: T2, recombinant human TGF-β2 (Homo sapiens, UniProt P61812); experiment: SBE reporter assay in SBE reporter-HEK293 cells, TGF-β2 stimulation; format: cell-based; conditions: FIG. 1
T2 construct: purchased R&D systems
T2 sequence (P61812 303-414 limits assumed): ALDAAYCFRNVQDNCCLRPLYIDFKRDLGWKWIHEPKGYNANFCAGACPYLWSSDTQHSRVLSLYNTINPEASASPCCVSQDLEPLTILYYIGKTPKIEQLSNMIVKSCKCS
Description: In addition, the selectivity of each peptide for TGF-β isoforms (TGF-β1 and β2) is checked. For this purpose, the inhibitory activity against TGF-β1 and TGF-β2 was evaluated using the peptide consisting of the amino acid sequence set forth in SEQ ID NO: 13 synthesized in Example 2.
SBE reporter-HEK293 cells were cultured in E-MEM (Wako) containing 10% FBS (Sigma). The cells were detached using Accutase (Innovative Cell Technologies), suspended in E-MEM containing 0.5% FBS, seeded onto a 96-well plate(s) at a concentration of 45,000 cells per well, and cultured overnight. The next day, the peptide was added and allowed to stand for 20 min, and recombinant human TGF-β1 (R&D systems) or recombinant human TGF-β2 (R&D systems) was then added at 0.13 nM and cultured for 18 hours.
Thereafter, luciferase assay ONE-Glo reagent was added to each well and the plate was shaken for 5 min. A SpectraMax Paradigm multimode microplate reader (Molecular Devices) was then used for signal detection. The obtained signals were analyzed by GraphPad Prism. The inhibitory activity of the peptide was calculated while the maximum signal induced by TGF-β was set to 0% inhibition and no stimulation was set to 100% inhibition.

[3] = biological target: T3, recombinant human TGF-β1 (R&D systems) (human, UniProt P01137 279-390); experiment: cell-based or functional assay
[4] = biological target: T3, recombinant human TGF-β1 (R&D systems); experiment: cell-based or functional assay; remark: listed apart in the source
[5] = biological target: T4, recombinant human TGF-β2 (R&D systems) (human, UniProt P61812 303-414); experiment: SPR, TGF-β2 immobilised, single cycle kinetics; target TGF-β2, not TGF-β1
T4 construct: Bought protein
T4 sequence (looked up): T2 sequence (P61812 303-414 limits assumed)

[6] = biological target: T4, recombinant human TGF-β2 (R&D systems); experiment: cell-based or functional assay
[7] = biological target: T3, recombinant human TGF-β1 (R&D systems); experiment: cell-based or functional assay; remark: listed apart in the source

T1 sequence (P01137 279-390 limits assumed): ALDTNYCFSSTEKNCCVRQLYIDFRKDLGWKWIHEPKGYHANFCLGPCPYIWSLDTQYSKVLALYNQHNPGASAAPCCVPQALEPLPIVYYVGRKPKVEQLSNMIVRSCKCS
T3 sequence (P01137 279-390 limits assumed): as above

- Kd (recombinant human TGF-β1 [1]): 0.86 nM
- TGF-β1 antagonist / inhibitory activity (in words) (recombinant human TGF-β1 [2]; SBE reporter assay, FIG. 1 and Tables 2 and 3): inhibits not only TGF-β1 but also TGF-β2
- inhibition at 62 pM (recombinant human TGF-β1 [2]; peptide 0.062 nM, TGF-β1 0.13 nM, 18 hours): 4.18%
- inhibition at 75 pM (recombinant human TGF-β1 [2]; TGF-β1 0.13 nM, 18 hours): 10.1%
- inhibition at 0.000185 µM (recombinant human TGF-β1 [2]; peptide 0.185 nM, TGF-β1 0.13 nM, 18 hours): 19.8%
- inhibition at 0.00056 µM (recombinant human TGF-β1 [2]; peptide 0.56 nM, TGF-β1 0.13 nM, 18 hours): 48.4%
- inhibition at 0.00075 µM (recombinant human TGF-β1 [2]; TGF-β1 0.13 nM, 18 hours): 65.2%
- inhibition at 0.0017 µM (recombinant human TGF-β1 [2]; peptide 1.7 nM, TGF-β1 0.13 nM, 18 hours): 80.9%
- inhibition at 0.005 µM (recombinant human TGF-β1 [2]; peptide 5.0 nM, TGF-β1 0.13 nM, 18 hours): 94.4%
- inhibition at 0.0075 µM (recombinant human TGF-β1 [2]; TGF-β1 0.13 nM, 18 hours): 96%
- inhibition at 0.015 µM (recombinant human TGF-β1 [2]; peptide 15.0 nM, TGF-β1 0.13 nM, 18 hours): 98.7%
- inhibition at 0.075 µM (recombinant human TGF-β1 [2]; TGF-β1 0.13 nM, 18 hours): 99.5%
- inhibitory activity against TGF-β2 (in words) (recombinant human TGF-β2): inhibits not only TGF-β1 but also TGF-β2
Molecule: CC(C)[C@@H]1NC(=O)CN(CCc2ccccc2)C(=O)[C@H](CC(=O)O)NC(=O)[C@H](CC(=O)O)NC(=O)[C@H](Cc2ccncc2)NC(=O)[C@H](C(C)C)NC(=O)[C@H](CC(N)=O)NC(=O)[C@H](C(C)C)NC(=O)[C@H](C(C)C)NC(=O)[C@H](Cc2cccc3ccccc23)NC(=O)[C@H](Cc2ccccc2)NC(=O)CSC[C@@H](C(=O)NCC(N)=O)NC(=O)[C@H](CCCCNC(=O)N2CCN(CC(=O)O)CC2)NC(=O)[C@H](Cc2c[nH]cn2)NC(=O)[C@H](Cc2ccc(O)cc2)NC(=O)[C@H](Cc2cccc3ccccc23)NC1=O [TGFb1_012] ({CH2CO}-F[1Nal]VVNV[4Pal]DD[Gly(NCH2CH2Ph)]V[1Nal]YHK([CO-Piperazinyl(4-CH2COOH)])CG-NH2; thioether N-16)

- Kd (recombinant human TGF-β1 [1]): 1.03 nM
- inhibition at 75 pM (recombinant human TGF-β1 [2]; TGF-β1 0.13 nM, 18 hours): 2.8%
- inhibition at 0.00075 µM (recombinant human TGF-β1 [2]; TGF-β1 0.13 nM, 18 hours): 69.3%
- inhibition at 0.0075 µM (recombinant human TGF-β1 [2]; TGF-β1 0.13 nM, 18 hours): 97.1%
- inhibition at 0.075 µM (recombinant human TGF-β1 [2]; TGF-β1 0.13 nM, 18 hours): 99.7%
Molecule: CC(C)[C@@H]1NC(=O)CN(CCc2ccccc2)C(=O)[C@H](CC(=O)O)NC(=O)[C@H](CC(=O)O)NC(=O)[C@H](Cc2ccncc2)NC(=O)[C@H](C(C)C)NC(=O)[C@H](CC(N)=O)NC(=O)[C@H](C(C)C)NC(=O)[C@H](C(C)C)NC(=O)[C@H](Cc2cccc3ccccc23)NC(=O)[C@H](Cc2ccccc2)NC(=O)CSC[C@@H](C(=O)NCC(N)=O)NC(=O)[C@H](C(C)C)NC(=O)[C@H](Cc2c[nH]cn2)NC(=O)[C@H](Cc2ccc(O)cc2)NC(=O)[C@H](Cc2cccc3ccccc23)NC1=O [TGFb1_006] ({CH2CO}-F[1Nal]VVNV[4Pal]DD[Gly(NCH2CH2Ph)]V[1Nal]YHVCG-NH2; thioether N-16)

- SBE reporter % inhibition, peptide 0.075 nM [3]: 10.1%
- SBE reporter % inhibition, peptide 0.75 nM [3]: 65.2%
- SBE reporter % inhibition, peptide 7.5 nM [3]: 96%
- SBE reporter % inhibition, peptide 75.0 nM [3]: 99.5%
- SBE reporter % inhibition, peptide 0.062 nM [4]: 4.18%
- SBE reporter % inhibition, peptide 0.185 nM [4]: 19.8%
- SBE reporter % inhibition, peptide 0.56 nM [4]: 48.4%
- SBE reporter % inhibition, peptide 1.7 nM [4]: 80.9%
- SBE reporter % inhibition, peptide 5.0 nM [4]: 94.4%
- SBE reporter % inhibition, peptide 15.0 nM [4]: 98.7%
- Kd [5]: 2 nM
- IC50 (read off the curve) (SBE reporter assay in SBE reporter-HEK293 cells; TGF-β2 at 0.13 nM) [6]: ~6 nM
- IC50 (read off the curve) (SBE reporter assay in SBE reporter-HEK293 cells; TGF-β1 at 0.13 nM) [7]: ~0.7 nM
B1: TGFb1_012 (peptide)
peptide: {CH2CO}-F[1Nal]VVNV[4Pal]DD[Gly(NCH2CH2Ph)]V[1Nal]YH[KCOpipzaa]CG-NH2
modifications: thioether N-16
SMILES: CC(C)[C@@H]1NC(=O)CN(CCc2ccccc2)C(=O)[C@H](CC(=O)O)NC(=O)[C@H](CC(=O)O)NC(=O)[C@H](Cc2ccncc2)NC(=O)[C@H](C(C)C)NC(=O)[C@H](CC(N)=O)NC(=O)[C@H](C(C)C)NC(=O)[C@H](C(C)C)NC(=O)[C@H](Cc2cccc3ccccc23)NC(=O)[C@H](Cc2ccccc2)NC(=O)CSC[C@@H](C(=O)NCC(N)=O)NC(=O)[C@H](CCCCNC(=O)N2CCN(CC(=O)O)CC2)NC(=O)[C@H](Cc2c[nH]cn2)NC(=O)[C@H](Cc2ccc(O)cc2)NC(=O)[C@H](Cc2cccc3ccccc23)NC1=O
notes: cyclic peptide; C-terminal G is a linker; also called TGF-β1_012
